Values of other authors as cited in PMC6974622, “DeepMalaria: Artificial Intelligence Driven Discovery of Potent Antiplasmodials” (Frontiers in Pharmacology, 2020).
Values joined by “and” are separate entries in the source; they are usually repeats but may differ in a detail not shown here. Equal values may be shown once.

System: 3D7
Parameters: unit not given here
Conditions: cited from earlier work

First: CN(C)c1ccc(C(=C2C=CC(=[N+](C)C)C=C2)c2ccccc2)cc1 [Malachite green]
Second: Phenylmercuric acetate
The 3D7 of the first is lower: 86.9 for the first, 97.7 for the second.

First: COc1cc2ncnc(Nc3ccc(F)c(Cl)c3)c2cc1OCCCN1CCOCC1 [Geftinib]
Second: CNCCCC12CCC(c3ccccc31)c1ccccc12 [Maprotiline]
The 3D7 of the first is higher: 67.6 for the first, 62.7 for the second.

Going from `COC(=O)C1=C(C)NC(C)=C(C(=O)OCCCN2CCC(c3ccccc3)(c3ccccc3)CC2)[C@H]1c1cccc([N+](=O)[O-])c1` [Niguldipine] to Tolonium chloride, the 3D7 rises from 89.3 to 99.5.

In the case of `CC[C@]1(O)C[C@@H]2CN(CCc3c([nH]c4ccccc34)[C@@](C(=O)OC)(c3cc4c(cc3OC)N(C)[C@H]3[C@@](O)(C(N)=O)[C@H](O)[C@]5(CC)C=CCN6CC[C@]43[C@@H]65)C2)C1` [Vindesine], the 3D7 is given as 81.9.

Same assay, conditions: repurposing dataset, 179 approved drugs; ref https://www.nature.com/articles/nchembio806; cited from earlier work

First: CC[C@@H](C(=O)[C@@H](C)[C@@H](O)[C@H](C)[C@@H]1O[C@@H]([C@@H](CC)C(=O)O)CC[C@@H]1C)[C@H]1O[C@]2(C=C[C@@H](O)[C@]3(CC[C@@](C)([C@H]4CC[C@](O)(CC)[C@H](C)O4)O3)O2)[C@H](C)C[C@@H]1C [Salinomycin]
Second: Fc1ccc(C(c2ccccc2)(c2ccccc2F)n2ccnc2)cc1 (stereo not shown) [Flutrimazole]
The 3D7 of the first is higher: 99.1 for the first, 85.2 for the second.

Going from `Oc1c(Br)cc(Br)c2cccnc12` [Broxyquinoline] to `C[C@@H]1C[C@@H]([C@H](O)CC2CC(=O)NC(=O)C2)C(=O)[C@@H](C)C1` [Cycloheximide], the 3D7 rises from 90.8 to 97.7.

Compared with `Cc1cccc(C)c1OCC(=O)N[C@@H](Cc1ccccc1)[C@@H](O)C[C@H](Cc1ccccc1)NC(=O)[C@H](C(C)C)N1CCCNC1=O` [Lopinavir], `C[C@H]1[C@H](OC(=O)CCC(=O)O)O[C@@H]2O[C@@]3(C)CC[C@H]4[C@H](C)CC[C@@H]1[C@@]24OO3` [Artesunate] is higher in 3D7: 84.9 for the first, 98.7 for the second.

Compared with `CC(=O)[C@]1(O)Cc2c(O)c3c(c(O)c2[C@@H](O[C@H]2C[C@H](N)[C@H](O)[C@H](C)O2)C1)C(=O)c1ccccc1C3=O` [Idarubicin], `CC(=O)O[C@H]1C(=O)[C@@]2(C)[C@H]([C@H](OC(=O)c3ccccc3)[C@]3(O)C[C@H](OC(=O)[C@H](O)[C@@H](NC(=O)c4ccccc4)c4ccccc4)C(C)=C1C3(C)C)[C@]1(OC(C)=O)CO[C@@H]1C[C@@H]2O` [Paclitaxel] is lower in 3D7: 98.9 for the first, 84.5 for the second.

Compared with `NC1CCN(c2c(F)cc3c(=O)c(C(=O)O)cn(C4CC4)c3c2Cl)C1` (stereo not shown) [Clinafloxacin], `CN(Cc1cnc2nc(N)nc(N)c2n1)c1ccc(C(=O)N[C@@H](CCC(=O)O)C(=O)O)cc1` [Methotrexate] is higher in 3D7: 79.3 for the first, 98.4 for the second.

Going from `Nc1ccc2cc3ccc(N)cc3nc2c1` [Proflavine] to `COc1cccc2c1C(=O)c1c(O)c3c(c(O)c1C2=O)C[C@@](O)(C(C)=O)C[C@@H]3O[C@H]1C[C@H](N)[C@H](O)[C@H](C)O1` [Daunorubicin], the 3D7 rises from 96.2 to 99.6.

Going from Plicamycin to `CC(C)N1CCN(c2ccc(OCC3COC(Cn4cncn4)(c4ccc(Cl)cc4Cl)O3)cc2)CC1` (stereo not shown) [Terconazole], the 3D7 falls from 98.2 to 56.

Going from `C=C[C@H]1CN2CC[C@H]1C[C@@H]2[C@@H](O)c1ccnc2ccccc12.C=C[C@H]1CN2CC[C@H]1C[C@@H]2[C@@H](O)c1ccnc2ccccc12.O=S(=O)(O)O` [Cinchonine sulfate] to `OC(c1cc(C(F)(F)F)nc2c(C(F)(F)F)cccc12)C1CCCCN1` (stereo not shown) [Mefloquine], the 3D7 rises from 88.6 to 97.7.

Compared with `CCCCCCCCCCCCCCCCCC[N+](C)(C)C.[Cl-]` [Stearyltrimethylammonium chloride], `C[N+](C)(CCOc1ccccc1)Cc1ccccc1.O=C(O)c1cc2ccccc2cc1[O-]` [Bephenium hydroxynaphthoate] is lower in 3D7: 78.6 for the first, 70.2 for the second.

Going from `CC[C@@]1(O)C(=O)OCc2c1cc1n(c2=O)Cc2cc3c(CN(C)C)c(O)ccc3nc2-1` [Topotecan] to `CCCCCCCCCCCC[N+](C)(C)CCOc1ccccc1` [Domiphen bromide], the 3D7 rises from 80.1 to 98.3.

`COc1c(C)c2c(c(O)c1C/C=C(\C)CCC(=O)O)C(=O)OC2` [Mycophenolic acid] and `N=C(N)N/N=C/c1c(Cl)cccc1Cl` [Guanabenz acetate] are the same in 3D7: 92.7 for the first, 92.7 for the second.

Going from `CC[C@]1(O)C[C@H]2CN(CCc3c([nH]c4ccccc34)[C@@](C(=O)OC)(c3cc4c(cc3OC)N(C=O)[C@H]3[C@@](O)(C(=O)OC)[C@H](OC(C)=O)[C@]5(CC)C=CCN6CC[C@]43[C@@H]65)C2)C1` [Vincristine] to `Clc1ccc2c(c1)CCc1cccnc1C2=C1CCNCC1` [Desloratadine], the 3D7 rises from 69.5 to 81.1.

Compared with `CO[C@@H]1[C@H](O)C[C@@H](O[C@@H]2C[C@H](Oc3cc4cc5c(c(O)c4c(O)c3C)C(=O)[C@@H](O[C@H]3C[C@@H](O[C@H]4C[C@@H](O[C@H]6C[C@](C)(O)[C@@H](OC(C)=O)[C@H](C)O6)[C@H](O)[C@@H](C)O4)[C@H](O)[C@@H](C)O3)[C@H]([C@H](OC)C(=O)[C@@H](O)[C@@H](C)O)C5)O[C@H](C)[C@@H]2OC(C)=O)O[C@@H]1C` [Chromomycin A3], `CC[n+]1c(-c2ccccc2)c2cc(N)ccc2c2ccc(N)cc21` [Homidium bromide] is higher in 3D7: 98.4 for the first, 98.9 for the second.

Going from `Nc1nc(N)c2nc(-c3ccccc3)c(N)nc2n1` [Triamterene] to Atovaquone, the 3D7 rises from 79.4 to 97.

First: COc1ccc(CCN(C)CCCC(C#N)(c2ccc(OC)c(OC)c2)C(C)C)cc1OC (stereo not shown) [Verapamil]
Second: Oc1ccc(Cl)c2cccnc12 [Cloxyquin]
The 3D7 of the first is higher: 98 for the first, 83.6 for the second.

Compared with `CCCCCCCCNC(C)C(O)c1ccc(SC(C)C)cc1` (stereo not shown) [Suloctidil], `CCCCC(CC)CN1CN(CC(CC)CCCC)CC(C)(N)C1` (stereo not shown) [Hexetidine] is lower in 3D7: 97.3 for the first, 86.2 for the second.

Going from `CCCCCCCCCCCCCCCC[N+](C)(C)CCN(Cc1ccc(OC)cc1)c1ncccn1` [Thonzonium bromide] to `CCN(CC)CCCC(C)Nc1ccnc2cc(Cl)ccc12` (stereo not shown) [Chloroquine diphosphate], the 3D7 falls from 97.5 to 97.3.

Compared with `Cc1cc(C2CCCCC2)n(O)c(=O)c1` [Ciclopirox olamine], `COc1ccc(C[C@H](N)C(=O)N[C@H]2[C@@H](O)[C@H](n3cnc4c(N(C)C)ncnc43)O[C@@H]2CO)cc1` [Puromycin] is higher in 3D7: 96.9 for the first, 98.9 for the second.

Going from `O.O=C(O)c1cc(O)c2c(c1)[O][Bi][O]2` [Bismuth gallate] to `CC(C)NCC(O)c1ccc2ccccc2c1` (stereo not shown) [Pronetalol], the 3D7 rises from 56.5 to 95.3.

Going from Doxycycline to `CC[C@H]1CN2CCc3cc(OC)c(OC)cc3[C@@H]2C[C@@H]1C[C@H]1NCCc2cc(OC)c(OC)cc21` [Emetine], the 3D7 rises from 59.7 to 98.3.

Compared with `O=C(c1ccc(OCCN2CCCCC2)cc1)c1c(-c2ccc(O)cc2)sc2cc(O)ccc12` [Raloxifene], `C[N+]1(C)CCC(=C(c2ccccc2)c2ccccc2)CC1` [Diphemanil] is lower in 3D7: 97.1 for the first, 90 for the second.

First: CC/C(=C(/CC)c1ccc(O)cc1)c1ccc(O)cc1 [Diethylstilbestrol]
Second: Carboplatin
The 3D7 of the first is lower: 57.3 for the first, 76.4 for the second.

Compared with `[Cl][Mn][Cl]` [Manganese chloride], `CN(C)C(=S)SSC(=S)N(C)C` [Thiram] is higher in 3D7: 94.1 for the first, 96.7 for the second.

Going from `C=CC(=O)O` [Acrylic acid] to `C[N+](C)(C)CCCCCCCCCC[N+](C)(C)C` [Decamethonium bromide], the 3D7 falls from 68.8 to 54.8.

Going from `CO[C@H]1/C=C\O[C@@]2(C)Oc3c(C)c(O)c4c(O)c(c(C=O)c(O)c4c3C2=O)NC(=O)/C(C)=C\C=C/[C@H](C)[C@H](O)[C@@H](C)[C@@H](O)[C@@H](C)[C@H](OC(C)=O)[C@@H]1C` [3-formyl rifamycin] to `CN(C)CCOC(c1ccccc1)c1ccc(Br)cc1` (stereo not shown) [Bromodiphenhydramine], the 3D7 falls from 99 to 64.2.

Compared with `N=C(N)c1ccc(OCCCCCOc2ccc(C(=N)N)cc2)cc1` [Pentamidine isethionate], `C=CC[N+]1([C@H]2C[C@H]3[C@@H]4CC[C@H]5C[C@H](O)[C@@H](N6CCOCC6)C[C@]5(C)[C@H]4CC[C@]3(C)[C@H]2OC(C)=O)CCCC1` [Rocuronium bromide] is lower in 3D7: 99.1 for the first, 52.6 for the second.

First: CN(C)CCOC(C)(c1ccccc1)c1ccc(Cl)cc1 (stereo not shown) [Chlorphenoxamine]
Second: CCOc1ccc2nc3cc(N)ccc3c(N)c2c1 [Ethacridine lactate]
The 3D7 of the first is lower: 90.8 for the first, 96.2 for the second.

Compared with `CN1CCC[C@@H]1CCO[C@](C)(c1ccccc1)c1ccc(Cl)cc1` [Clemastine], `Cc1cc(N)c2ccccc2[n+]1CCCCCCCCCC[n+]1c(C)cc(N)c2ccccc21` [Dequalinium chloride] is higher in 3D7: 96.5 for the first, 97.6 for the second.

Compared with `C=Cc1c(C)c2cc3nc(cc4[nH]c(cc5nc(cc1[nH]2)C(C)=C5CCC(=O)O)c(CCC(=O)OC)c4C)[C@@]1(C)C3=CC=C(C(=O)OC)[C@H]1C(=O)OC` [Verteporfin], `C=C[C@H]1C[N@@]2CC[C@H]1C[C@H]2[C@H](O)c1ccnc2ccc(OC)cc12` [Quinine] is higher in 3D7: 95.4 for the first, 98.3 for the second.

First: O=[N+]([O-])c1ccc(O)c2ncccc12 [Nitroxoline]
Second: COC(=O)[C@@H]1c2cc3c(c(O)c2[C@@H](O[C@@H]2O[C@@H](C)[C@H](OC)[C@@](C)(OC)[C@H]2OC)C[C@]1(C)O)C(=O)c1c(O)cc2c(c1C3=O)O[C@@H]1O[C@@]2(C)[C@H](O)[C@@H](N(C)C)[C@@H]1O [Nogalamycin]
The 3D7 of the first is higher: 97.2 for the first, 85.3 for the second.

First: O=c1[nH]cc(F)c(=O)[nH]1 [Fluorouracil]
Second: Gramicidin A
The 3D7 of the first is lower: 89.2 for the first, 98.5 for the second.

Going from `CO[C@H]1C[C@@H]2CC[C@@H](C)[C@@](O)(O2)C(=O)C(=O)N2CCCC[C@H]2C(=O)O[C@H]([C@H](C)C[C@@H]2CC[C@@H](O)[C@H](OC)C2)CC(=O)[C@H](C)/C=C(\C)[C@@H](O)[C@@H](OC)C(=O)[C@H](C)C[C@H](C)/C=C/C=C/C=C/1C` [Rapamycin] to `CCC1=C[C@@H]2CN(C1)Cc1c([nH]c3ccccc13)[C@@](C(=O)OC)(c1cc3c(cc1OC)N(C)[C@H]1[C@@](O)(C(=O)OC)[C@H](OC(C)=O)[C@]4(CC)C=CCN5CC[C@]31[C@@H]54)C2` [Vinorelbine], the 3D7 rises from 51.4 to 97.7.

For `CCC(C)C(C(=O)OCC[N+](C)(CC)CC)c1ccccc1` (stereo not shown) [Valethamate], the 3D7 is listed as 79.9.

In the case of `O=C1c2c(O)ccc(O)c2C(=O)c2c(NCCNCCO)ccc(NCCNCCO)c21` [Mitoxantrone], the 3D7 is listed as 99.2 and 98.4.
